Results published in paper PMC9570594, “Development of Novel Pyridine-Thiazole Hybrid Molecules as Potential Anticancer Agents” (Molecules, 2022).
Like-named read-outs stand apart in the source and are kept apart here.

Experiments:
[1] = tested on: human epidermal keratinocytes of HaCaT line; assay: MTT assay of cell viability; conditions: 72 h
[2] = tested on: HL-60(TB) (Leukemia); assay: NCI one-dose SRB assay; type: cell-based, human; conditions: 10 μM, 48 h
[3] = tested on: panel of 60 cancer cell lines; assay: NCI DTP one-dose primary anticancer assay (10^-5 M, SRB); conditions: 10 μM; for Range of Growth, %: 48 h, 60 cell lines; for Positive Cytostatic Effect: number of cell lines with percent growth from 0 to 50 / total number of cell lines; for Positive Cytotoxic Effect: number of cell lines with percent growth of <0 / total number of cell lines
Experimental: (§1) Primary anticancer assays (Table 3) on a panel of 60 cancer cell lines at one dose-assay (10^−5 M) were performed according to the NCI protocol, as described elsewhere [31, 32, 33, 34, 35].
(§2) A primary anticancer assay was performed on a panel of approximately sixty human tumor cell lines derived from nine neoplastic diseases, in accordance with the protocol of the Drug Evaluation Branch, National Cancer Institute, Bethesda [31, 32, 33, 34, 35]. Tested compounds were added to the culture at a single concentration (10^−5 M) and the cultures were incubated for 48 h. End point determinations were made with a protein binding dye, Sulphorhodamine B (SRB). […] The percentage growth was evaluated spectrophotometrically versus controls not treated with test agents.

[4] = tested on: CCRF-CEM (Leukemia); assay: NCI one-dose SRB assay; type: cell-based, human; conditions: 10 μM, 48 h
[5] = tested on: human embryonic kidney HEK293 cells; assay: MTT assay of cell viability; conditions: HEK293, 72 h
[6] = tested on: MDA-MB-468 (Brest Cancer); assay: NCI one-dose SRB assay; type: cell-based, human; conditions: 10 μM, 48 h
[7] = tested on: SK-OV-3 (ovarian); assay: MTT assay of cell viability; conditions: Homo sapiens, SK-OV-3, 72 h
[8] = tested on: HCT-116 (colon); assay: MTT assay of cell viability
[9] = tested on: Jurkat (leukemia); assay: MTT assay of cell viability; conditions: Homo sapiens, 72 h
[10] = tested on: HCT-116 p53 (−/−) colon cancer cells; assay: MTT assay of cell viability; conditions: Homo sapiens, HCT-116, 72 h
Source text: The cell lines used in our work were kindly provided by a Collection at the Institute of Molecular Biology and Genetics, National Academy of Sciences of Ukraine (Kyiv, Ukraine).

[11] = tested on: SR (Leukemia); assay: NCI one-dose SRB assay; conditions: 10 μM, 48 h
Experimental: as §1, §2

[12] = tested on: A549 (lung); assay: MTT assay of cell viability; conditions: Homo sapiens, A549, 72 h
[13] = tested on: BALB-3T3 (normal mouse fibroblasts); assay: MTT assay of cell viability; conditions: BALB/3T3, 72 h
[14] = tested on: NCI-H522 (Non-Small Cell Lung Cancer); assay: NCI one-dose SRB assay; conditions: 10 μM, 48 h
Experimental: as §1, §2

[15] = tested on: MCF-7 (breast); assay: MTT assay of cell viability
[16] = tested on: KB3-1 (cervix); assay: MTT assay of cell viability
[17] = tested on: MDA-MB-435 (Melanoma); assay: NCI one-dose SRB assay; type: cell-based, human; conditions: 10 μM, 48 h
[18] = tested on: K-562 (Leukemia); assay: NCI one-dose SRB assay; conditions: 10 μM, 48 h
Experimental: as §1, §2

[19] = tested on: murine macrophages of J774.2 line; assay: MTT assay of cell viability; conditions: Mus musculus, J774.2, 72 h
[20] = tested on: KB3-1 cells; assay: Fluorescent microscopy of morphological changes (Hoechst 33342/PI); type: cell-based, human; conditions: 48 h
Experimental: In addition, we observed multinucleated giant cells. […] The condensed chromatin, a characteristic feature of apoptosis, and dead cells were observed under the action of all studied compounds.
KB3-1 cells were seeded in the 12-well plates (CytoONE, STARLAB International GmbH, Hamburg, Germany) on glass microscopic slides and incubated overnight. Studied compounds were added to cells in the following concentrations: the compounds 3, 4 and cisplatin—5 µM/mL, doxorubicin—1 µM/mL. Cells were incubated for the next 48 h. Chromatin material of living and apoptotic cells was stained with the DNA-specific fluorescent dye Hoechst 33342 (Sigma-Aldrich, Burlington, MA, USA) and the DNA/RNA-specific fluorescent dye Propidium iodide (PI, Sigma, Burlington, MA, USA). Fluorochromes were added to cultured cells at final concentrations 0.2–0.5 μg/mL for Hoechst 33342 and 0.1 μg/mL—for PI. Images were made with a fluorescent Zeiss microscope (Carl Zeiss, Oberkochen, Germany). Magnification ×400. Microphotographs were additionally analyzed using ImagePro7N software.

[21] = tested on: HL-60 cells of the acute human promyelocytic leukemia; assay: MTT assay of cell viability
[22] = tested on: MCF-7 cells; assay: Clonogenic assay; type: cell-based, human; conditions: MCF-7, positive control, concentration not given, 10 days
Experimental: This assay essentially tests every cell in the population for its ability to undergo “unlimited” division. […] At 1 µM concentration, it reduced the ability of the MCF-7 single cell to grow into a colony to 36%. […] With a concentration equivalent to 10 µM of the compound 4, the DMSO increased the cell’s ability to grow in colony.
MCF-7 cells were seeded in triplicate in 6-well plates (CytoONE, STARLAB International GmbH, Germany) at a density of 500 cells per well. After 24 h incubation, the compound 4 was added in 1 and 10 μM concentrations and cells were treated for 10 days. Colonies containing ≥ 50 cells were fixed with 50% (v/v) methanol in the PBS and stained with crystal violet (Sigma-Aldrich, Burlington, MA, USA). Stained colonies were counted and expressed as a fraction of the untreated control.

[23] = tested on: MCF-7 breast cancer cells; assay: Mitochondrial membrane potential, JC-1 (flow cytometry); type: cell-based, human; conditions: MCF-7, 5 µM, 24 h, control 5.1 ± 0.7%
Experimental: A decrease in the mitochondrial membrane potential (MMP, ΔΨm) is one of the earliest changes observed at apoptosis. […] The MCF-7 cells had depolarized mitochondria, reaching 25.3 ± 1.5% and 24.7 ± 0.4% of the cell population treated with the compound 4 and 7, respectively. In the control, there were only 5.1 ± 0.7% cells with a decreased ΔΨm.
Disruption of the MMP was assessed using the lipophilic cationic probe 5,5,6,6-tetrachloro-1,1,3,3-tetraethylbenzimidazolcarbocyanine iodide (JC-1 MitoScreen kit; BD Biosciences San Diego, CA, USA), as described previously. The entire assay was performed according to the manufacturer’s instructions provided with the purchased kit. […] Briefly, unfixed MCF-7 cells were washed and resuspended in the PBS supplemented with the JC-1 dye. Then, cells were incubated for 15 min at room temperature (RT) in the dark, washed, and resuspended in the PBS for the immediate BD FACSCanto II flow cytometry analysis.

[24] = tested on: MCF-7 breast cancer cells; assay: Annexin V-FITC/PI binding assay (flow cytometry); conditions: MCF-7, 5 µM, 24 h; control 4.4 ± 0.6%
Experimental: Annexin V-FITC and Propidium Iodide were used for apoptosis measurement.
Apoptosis was determined, as described [42], using Annexin V-FITC binding by means of the FITC Annexin V Apoptosis Detection Kit II(BD Biosciences, San Diego, CA, USA) according to the manufacturer’s instruction. Cells (10,000 cell measured) were analyzed in a BD FACSCanto II flow cytometer (BD Biosciences, San Diego, CA, USA). Annexin V binds with high affinity to phosphatidylserine, and thus, can be used to identify cells in all stages of the programmed cell death. Propidium iodide (PI) exclusively stains cells with a disrupted cell membrane and can be used to identify late apoptotic and dead cells. Cells cultured in a drug-free medium were used as controls. […] The contents of the test tubes were gently vortexed and incubated for 15 min at room temperature, protected from light. After the required time, the contents of the test tubes were made up to 500 µL with the Binding Buffer and immediately analyzed in a flow cytometer. The ratio of the apoptotic cells (early and late) was measured as: a percentage of cells from the upper right square (color red) to percentage of cells from the lower right square (color blue). Analysis was performed using the BD FACSCanto II flow cytometer, and the results were analyzed with FACSDiva software (both from BD Biosciences Systems, San Jose, CA, USA). […]

[25] = tested on: panel of cancer cell lines; assay: MTT assay, summary over the tumor cell lines; conditions: 72 h; for IC50: Homo sapiens, read-out: IC50 toward tumor cells (depending on tumor cell line)
[26] = tested on: MCF-7 cells; assay: PARP-1 inhibition in vitro: MTT after Fluzoparib pretreatment; type: cell-based, human; conditions: for IC50: Homo sapiens, MCF7
Experimental: Taking into account the above data, PARP1 inhibition in vitro was investigated using pretreatment of the MCF-7 cells with the Fluzoparib, a potent PARP1 inhibitor in the non-toxic concentrations of 5, 10, and 15 µM. It had no significant growth inhibitory effect in such doses, and a reduction of cell viability by only 10–12% was observed compared to control (non-treated) cells. […] The preincubation step was used to bind PARP1 molecules, which were the potential targets of the studied compounds and to test if it would affect the activity of 3 and 4. […] The preincubation of cells with the Fluzoparib decreased their sensitivity to the compound 3 treatment in a less pronounced manner, compared with the effect of the compound 4. […] Changes in structure of the started compound 3 may cause an enhancement of the ability of molecule 4 to inhibit the activity of PARP1.
To determine PARP inactivation, the MCF-7 cells were pretreated for 2 h in the non-toxic concentrations of 5, 10, 15 µM of the Fluzoparib (Med Chem Express, Monmouth Junction, NJ, USA), a potent PARP1 inhibitor used in the chemotherapy. Then, the medium was removed and increasing doses of the compounds 3 and 4 were added and cells were incubated for the next 72 h. The IC50 values of compounds were determined by the MTT assay, as described.

[27] = tested on: T-47D (Brest Cancer); assay: NCI one-dose SRB assay; conditions: 10 μM, 48 h
Experimental: (§3) Tested compounds were added to the culture at a single concentration (10^−5 M) and the cultures were incubated for 48 h. End point determinations were made with a protein binding dye, Sulphorhodamine B (SRB). […] The percentage growth was evaluated spectrophotometrically versus controls not treated with test agents.

[28] = tested on: SK Mel-5 (Melanoma); assay: NCI one-dose SRB assay; conditions: 10 μM, 48 h
Experimental: as §3

[29] = tested on: pseudo-normal cell lines (HEK293, HaCaT); assay: MTT assay, summary over pseudo-normal cell lines; conditions: Homo sapiens, 72 h, read-out: IC50 towards pseudo-normal cell lines
[30] = Homo sapiens, HCT-116, 72 h, HCT-116, 72 h of incubation, M ± SD
[31] = Homo sapiens, MCF7, 72 h, MCF-7, 72 h of incubation, M ± SD
[32] = Homo sapiens, KB 3-1, 72 h, KB3-1, 72 h of incubation, M ± SD
[33] = HL-60, 72 h of incubation, M ± SD
[34] = HCT-116, 72 h of incubation, M ± SD
[35] = MCF-7, 72 h of incubation, M ± SD

Structure (SMILES) | IC50 [1] [µM] | IC50 [5] [µM] | IC50 [7] [µM] | IC50 [8, 30] [µM] | IC50 [9] [µM] | IC50 [10] [µM] | IC50 [12] [µM] | IC50 [13] [µM] | IC50 [15, 31] [µM] | IC50 [16, 32] [µM] | IC50 [19] [µM] | other results
Cc1nc(Nc2ccccn2)sc1C1=NNC(c2ccccc2F)C1 (stereo not drawn) [Compound 5, {5-[5-(2-Fluorophenyl)-4,5-dihydro-1H-pyrazol-3-yl]-4-methylthiazol-2-yl}-(pyridin-2-yl)-amine] | > 50 | 45.4 ± 2.26 | > 50 | > 50 | > 50 | 34.5 ± 1.02 | 33.1 ± 1.32 | 34.2 ± 1.7 | > 50 | 13.1 ± 0.52 | > 50 | Growth % [2]: 4.96%; Range of Growth, % [3]: −18.90–118.83%; Positive Cytostatic Effect [3]: 25/60; Positive Cytotoxic Effect [3]: 3/60; Growth % [4]: 19.12%; Growth % [6]: −13.74%; Growth % [11]: 12.44%; Growth % [14]: −18.90%; Growth % [17]: −17.91%; Growth % [18]: 15.13%
COc1cccc2c1C(=O)c1c(O)c3c(c(O)c1C2=O)C[C@@](O)(C(=O)CO)C[C@@H]3O[C@H]1C[C@H](N)[C@H](O)[C@H](C)O1 [Doxorubicin, reference compound] | > 10 | 1.29 ± 0.87 | 3.2 ± 0.1 | – | 1.17 ± 0.12 | 1.19 ± 1.3 | 2 ± 0.35 | 3.18 ± 0.25 | – | – | 1.74 ± 1.1 | morphological changes ([20]; KB3-1, 1 µM): induced cell membrane damage and membrane blebbing to a greater extent; IC50 ([21]; Homo sapiens, HL-60, 72 h): 0.38 ± 0.5 µM; IC50 ([8]; Homo sapiens, HCT-116, 72 h): 0.9 ± 0.09 µM; ability of single cell to grow into a colony (compared with control) [22]: 3%; IC50 ([15]; Homo sapiens, MCF7, 72 h): 1.04 ± 0.8 µM; IC50 ([16]; Homo sapiens, KB 3-1, 72 h): 4 ± 1.3 µM
CS(=O)(=O)O.Cc1nc(Nc2ccccn2)sc1C(=O)/C=C/c1ccccc1F [Compound 7, (E)-3-(2-Fluorophenyl)-1-[4-methyl-2-(pyridin-1-ium-2-ylamino)thiazol-5-yl]-2-propen-1-one Methanesulfonate] | – | – | – | – | – | – | – | – | – | – | – | cells with depolarized mitochondria (decreased ΔΨm) [23]: 24.7 ± 0.4%; IC50 [21, 33]: > 10 µM; apoptotic cells (sum of early and late apoptotic cells) [24]: 31.0 ± 1.9%; IC50 [8, 34]: 7.27 ± 0.27 µM; IC50 [15, 35]: 4.3 ± 0.98 µM; IC50 toward tumor cells (depending on tumor cell line) ([25]; summary over tumor cell lines, MTT): acted more weakly compared with 3 and 4; IC50 ([16]; KB3-1, 72 h of incubation, M ± SD): 3.96 ± 1.23 µM
O=C(c1cc(Cc2n[nH]c(=O)c3ccccc23)ccc1F)N1CCn2nc(C(F)(F)F)nc2C1 [Fluzoparib, reference compound] | – | – | – | – | – | – | – | – | – | – | – | IC50 [26]: 47 µM; reduction of cell viability ([26]; MCF-7, 5, 10 and 15 µM, compared to non-treated cells): 10–12%
N.N.[Cl][Pt][Cl] [cisplatin, reference compound] | – | – | – | – | – | – | – | – | – | – | – | morphological changes ([20]; KB3-1, 5 µM): significantly less DNA damage
CC(=O)N1N=C(c2sc(Nc3ccccn3)nc2C)CC1c1ccccc1F (stereo not drawn) [Compound 6, 1-{5-(2-Fluorophenyl)-3-[4-methyl-2-(2-pyridylamino)-thiazol-5-yl]-4,5-dihydropyrazol-1-yl}-ethanone] | > 50 | – | 39.6 ± 2.37 | > 50 | > 100 | 29.1 ± 1.45 | 63.4 ± 3.81 | – | 45.4 ± 2.2 | 24.9 ± 0.74 | > 50 | Range of Growth, % [3]: 12.53–95.32%; Positive Cytostatic Effect [3]: 32/59; Positive Cytotoxic Effect [3]: 0/59; Growth % [27]: 14.27%; Growth % [28]: 17.75%; Growth % [11]: 12.53%; Growth % [18]: 15.62%
CC(=O)c1sc(Nc2ccccn2)nc1C [Compound 2, 1-[4-Methyl-2-(2-pyridylamino)thiazol-5-yl]ethanone] | > 50 | – | > 50 | > 50 | > 50 | > 50 | > 50 | – | > 50 | 38 ± 1.9 | > 50 | IC50 [25]: > 50 µM
Cc1nc(Nc2ccccn2)sc1C(=O)/C=C/c1ccccc1F [Compound 3, (E)-3-(2-Fluorophenyl)-1-[4-methyl-2-(2-pyridylamino)-thiazol-5-yl]-2-propen-1-one] | > 50 | > 50 | > 50 | – | 5.2 ± 0.1 | 2.81 ± 0.16 | 4.56 ± 0.22 | 7.18 ± 0.21 | – | 7.42 ± 0.22 | > 50 | morphological changes ([20]; KB3-1, 5 µM): significantly less DNA damage; IC50 [21, 33]: 0.57 ± 0.35 µM; IC50 [29]: > 50 µM; IC50 [8, 34]: 2.9 ± 1.03 µM; IC50 ([26]; MCF-7, compound alone (no preincubation), 72 h MTT, read-out: IC50): 3.9 µM; IC50 [15, 35]: 1.86 ± 0.9 µM; IC50 [25]: 0.57 to 7.8 µM
